Measurements from patent publication US12077503B2, “Substituted cyclic amides and their use as herbicides” (FMC CORPORATION, priority 2015, dated 2024).

Experiments:
Format in all cases: in vivo
[1] = test system: Kochia (Kochia scoparia); test: Test A preemergence; conditions: Bassia scoparia, pre-emergence, 240 h, Preemergence
Procedure, shortened: (§1)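 Visual injury, scored on a 0–100 scale relative to untreated controls, was recorded about 10 d after application. Treatments were a preemergence soil spray over planted seeds or a postemergence spray on plants at the one- to two-leaf stage, 2 to 10 cm tall, all in loam soil–sand blend in the greenhouse.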

[2] = test system: barnyardgrass (Echinochloa crus-galli); test: Test A preemergence; conditions: Echinochloa crus-galli, pre-emergence, 240 h, Preemergence
Procedure, shortened: as §1

[3] = test system: giant foxtail (Setaria faberii); test: Test A preemergence; conditions: Setaria faberi, pre-emergence, 240 h, Preemergence
Procedure, shortened: as §1

[4] = test system: pigweed (Amaranthus retroflexus); test: Test A preemergence; conditions: Amaranthus retroflexus, pre-emergence, 240 h, Preemergence
[5] = test system: ragweed (common ragweed, Ambrosia elatior); test: Test A preemergence; conditions: Ambrosia artemisiifolia, pre-emergence, 240 h, Preemergence
Procedure, shortened: as §1

[6] = test system: ryegrass, Italian (Italian ryegrass, Lolium multiflorum); test: Test A preemergence; conditions: Lolium multiflorum, pre-emergence, 240 h, Preemergence
Procedure, shortened: as §1

[7] = test system: Kochia (Kochia scoparia); test: Test A postemergence; conditions: Bassia scoparia, post-emergence, 240 h, Postemergence, read-out: Kochia plant response rating (0 to 100 scale)
Procedure, shortened: as §1

[8] = test system: barnyardgrass (Echinochloa crus-galli); test: Test A postemergence; conditions: Echinochloa crus-galli, post-emergence, 240 h, Postemergence
Procedure, shortened: as §1

[9] = test system: blackgrass (Alopecurus myosuroides); test: Test A postemergence; conditions: Alopecurus myosuroides, post-emergence, 240 h, Postemergence, read-out: Blackgrass plant response rating (0 to 100 scale)
Procedure, shortened: as §1

[10] = test system: corn (Zea mays); test: Test A postemergence; conditions: Zea mays, post-emergence, 240 h, Postemergence, read-out: Corn plant response rating (0 to 100 scale)
Procedure, shortened: as §1

[11] = test system: giant foxtail (Setaria faberii); test: Test A postemergence; conditions: Setaria faberi, post-emergence, 240 h, Postemergence, read-out: Foxtail, Giant plant response rating (0 to 100 scale)
Procedure, shortened: as §1

[12] = test system: pigweed (Amaranthus retroflexus); test: Test A postemergence; conditions: Amaranthus retroflexus, post-emergence, 240 h, Postemergence, read-out: Pigweed plant response rating (0 to 100 scale)
Procedure, shortened: as §1

[13] = test system: ragweed (common ragweed, Ambrosia elatior); test: Test A postemergence; conditions: Ambrosia artemisiifolia, post-emergence, 240 h, Postemergence, read-out: Ragweed plant response rating (0 to 100 scale)
Procedure, shortened: as §1

[14] = test system: ryegrass, Italian (Italian ryegrass, Lolium multiflorum); test: Test A postemergence; conditions: Lolium multiflorum, post-emergence, 240 h, Postemergence, read-out: Ryegrass, Italian plant response rating (0 to 100 scale)
Procedure, shortened: as §1

[15] = test system: wheat (Triticum aestivum); test: Test A postemergence; conditions: Triticum aestivum, post-emergence, 240 h, Postemergence, read-out: Wheat plant response rating (0 to 100 scale)
Procedure, shortened: as §1

[16] = test system: barnyardgrass (Echinochloa crus-galli); test: Test B flooded paddy test; conditions: Echinochloa crus-galli, 360 h, Flood, 250 g ai/ha; visually evaluated after 13 to 15 d; read-out: Plant response rating, Barnyardgrass (0 to 100 scale where 0 is no effect and 100 is complete control)
Procedure, shortened: (§2)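 Rating scale 0–100 (visual, vs untreated controls) after a 13–15 d greenhouse period; application to the flood layer, 3 cm above soil and maintained; plants at 2-leaf stage when treated.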

[17] = test system: ducksalad (Heteranthera limosa); test: Test B flooded paddy test; conditions: Heteranthera limosa, 360 h, Flood, 250 g ai/ha; visually evaluated after 13 to 15 d; read-out: Plant response rating, Ducksalad (0 to 100 scale where 0 is no effect and 100 is complete control)
Procedure, shortened: as §2

[18] = test system: rice (Oryra sativa); test: Test B flooded paddy test; conditions: Oryza sativa, 360 h, Flood, 250 g ai/ha; visually evaluated after 13 to 15 d; read-out: Plant response rating, Rice (0 to 100 scale where 0 is no effect and 100 is complete control)
Procedure, shortened: as §2

[19] = test system: sedge, umbrella (small-flower umbrella sedge, Cyperus difformis); test: Test B flooded paddy test; conditions: Cyperus difformis, 360 h, Flood, 250 g ai/ha; visually evaluated after 13 to 15 d; read-out: Plant response rating, Sedge, Umbrella (0 to 100 scale where 0 is no effect and 100 is complete control)
Procedure, shortened: as §2

[20] = 125 g ai/ha, visual rating about 10 d after treatment
[21] = 31 g ai/ha, 0 is no effect, 100 is complete control

COc1ccc([C@H]2CN(C)C(=O)[C@@H]2C(=O)Nc2ccccc2F)cc1 [Compound 1342]
60%: pest or weed control at 31 g/ha ([2]; 31 g ai/ha, 0 to 100 scale where 0 is no effect and 100 is complete control, read-out: Barnyardgrass plant response rating)
100%: pest or weed control at 125 g/ha ([3]; 125 g ai/ha, 0 to 100 scale (0 no effect, 100 complete control), read-out: Plant response rating, Foxtail, Giant)
85%: pest or weed control at 250 g/ha [17]
90%: pest or weed control at 125 g/ha ([2]; 125 g ai/ha, 0 to 100 scale (0 no effect, 100 complete control), read-out: Plant response rating, Barnyardgrass) | pest or weed control at 31 g/ha ([3]; 31 g ai/ha, 0 to 100 scale where 0 is no effect and 100 is complete control, read-out: Foxtail, Giant plant response rating) | pest or weed control at 125 g/ha ([8]; 125 g ai/ha, visual rating about 10 d after treatment, read-out: Barnyardgrass plant response rating (0 to 100 scale, 0 no effect, 100 complete control))
20%: pest or weed control at 125 g/ha ([4]; 125 g ai/ha, 0 to 100 scale (0 no effect, 100 complete control), read-out: Plant response rating, Pigweed) | pest or weed control at 125 g/ha [7, 20] | pest or weed control at 31 g/ha ([8]; 31 g ai/ha, 0 is no effect, 100 is complete control, read-out: Barnyardgrass plant response rating (0 to 100 scale)) | pest or weed control at 31 g/ha [11, 21]
0%: pest or weed control at 31 g/ha ([1]; 31 g ai/ha, 0 to 100 scale where 0 is no effect and 100 is complete control, read-out: Kochia plant response rating) | pest or weed control at 125 g/ha ([1]; 125 g ai/ha, 0 to 100 scale (0 no effect, 100 complete control), read-out: Plant response rating, Kochia) | pest or weed control at 31 g/ha ([4]; 31 g ai/ha, 0 to 100 scale where 0 is no effect and 100 is complete control, read-out: Pigweed plant response rating) | pest or weed control at 31 g/ha ([5]; 31 g ai/ha, 0 to 100 scale where 0 is no effect and 100 is complete control, read-out: Ragweed plant response rating) | pest or weed control at 125 g/ha ([5]; 125 g ai/ha, 0 to 100 scale (0 no effect, 100 complete control), read-out: Plant response rating, Ragweed) | pest or weed control at 31 g/ha ([6]; 31 g ai/ha, 0 to 100 scale where 0 is no effect and 100 is complete control, read-out: Ryegrass, Italian plant response rating) | pest or weed control at 125 g/ha ([6]; 125 g ai/ha, 0 to 100 scale (0 no effect, 100 complete control), read-out: Plant response rating, Ryegrass, Italian) | pest or weed control at 31 g/ha [7, 21] | pest or weed control at 125 g/ha [9, 20] | pest or weed control at 31 g/ha [9, 21] | plant injury at 125 g/ha [10, 20] | plant injury at 31 g/ha [10, 21] | pest or weed control at 125 g/ha [12, 20] | pest or weed control at 31 g/ha [12, 21] | pest or weed control at 125 g/ha [13, 20] | pest or weed control at 31 g/ha [13, 21] | pest or weed control at 125 g/ha [14, 20] | pest or weed control at 31 g/ha [14, 21] | plant injury at 125 g/ha [15, 20] | plant injury at 31 g/ha [15, 21] | pest or weed control at 250 g/ha [18] | pest or weed control at 250 g/ha [19]
50%: pest or weed control at 250 g/ha [16]
70%: pest or weed control at 125 g/ha [11, 20]
